According to PubChem BioAssay (NCI):
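Step 1: Grow cells in 96-well plates. Step 2: Expose to compound for 48 hours at 5 concentrations. Step 3: Interpolate endpoints linearly; if unreached, use highest concentration. GI50 = concentration required for 50% inhibition of growth. At the TGI there is no net growth.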

Columns and labels:
Test in all cases: NCI anticancer screen, dose series, 48 h
IGROV1 ovarian = tested on: IGROV1 ovarian
PC-3 prostate = tested on: PC-3 prostate
SF-268 CNS = tested on: SF-268 CNS
OVCAR-5 ovarian = tested on: OVCAR-5 ovarian
SNB-75 CNS = tested on: SNB-75 CNS
SK-OV-3 ovarian = tested on: SK-OV-3 ovarian
OVCAR-4 ovarian = tested on: OVCAR-4 ovarian
HL-60(TB) leukemia = tested on: HL-60(TB) leukemia
SF-539 CNS = tested on: SF-539 CNS
786-0 renal = tested on: 786-0 renal
RXF 393 renal = tested on: RXF 393 renal
T-47D breast = tested on: T-47D breast
DU-145 prostate = tested on: DU-145 prostate
SNB-19 CNS = tested on: SNB-19 CNS
UACC-62 melanoma = tested on: UACC-62 melanoma
SR leukemia = tested on: SR leukemia
NCI-H522 lung = tested on: NCI-H522 lung
NCI-H460 lung = tested on: NCI-H460 lung
SN12C renal = tested on: SN12C renal
CCRF-CEM leukemia = tested on: CCRF-CEM leukemia
SK-MEL-5 melanoma = tested on: SK-MEL-5 melanoma
SF-295 CNS = tested on: SF-295 CNS
NCI-H226 lung = tested on: NCI-H226 lung
EKVX NSCLC = tested on: EKVX NSCLC
OVCAR-8 ovarian = tested on: OVCAR-8 ovarian
BT-549 breast = tested on: BT-549 breast
SK-MEL-28 melanoma = tested on: SK-MEL-28 melanoma
CAKI-1 renal = tested on: CAKI-1 renal
MOLT-4 leukemia = tested on: MOLT-4 leukemia
NCI-H23 lung = tested on: NCI-H23 lung
HCT-116 colon = tested on: HCT-116 colon
U251 CNS = tested on: U251 CNS
A549 NSCLC = tested on: A549 NSCLC
MDA-MB-435 = tested on: MDA-MB-435
COLO 205 colon = tested on: COLO 205 colon
HOP-62 NSCLC = tested on: HOP-62 NSCLC
LOX IMVI melanoma = tested on: LOX IMVI melanoma
HCT-15 colon = tested on: HCT-15 colon
UO-31 renal = tested on: UO-31 renal
MDA-MB-231 breast = tested on: MDA-MB-231 breast
HT29 colon = tested on: HT29 colon
M14 melanoma = tested on: M14 melanoma
RPMI-8226 leukemia = tested on: RPMI-8226 leukemia
MCF7 breast = tested on: MCF7 breast
OVCAR-3 ovarian = tested on: OVCAR-3 ovarian
HCC-2998 colon = tested on: HCC-2998 colon
SW-620 colon = tested on: SW-620 colon
SK-MEL-2 melanoma = tested on: SK-MEL-2 melanoma
A498 renal = tested on: A498 renal
MALME-3M melanoma = tested on: MALME-3M melanoma
HS 578T breast = tested on: HS 578T breast
HOP-92 NSCLC = tested on: HOP-92 NSCLC
KM12 colon = tested on: KM12 colon
NCI/ADR-RES ovarian = tested on: NCI/ADR-RES ovarian
K-562 leukemia = tested on: K-562 leukemia
TK-10 renal = tested on: TK-10 renal
ACHN renal = tested on: ACHN renal
UACC-257 melanoma = tested on: UACC-257 melanoma
MDA-N = tested on: MDA-N

`CCOC(=O)c1ccc2[nH]c(Cc3[nH]c4ccc(C(=O)OCC)cc4c3C)c(C)c2c1` was tested, and the GI50 (IGROV1 ovarian) was 2.35 µM, the TGI (IGROV1 ovarian) was 17 µM and the GI50 (PC-3 prostate) was 1.46 µM. For the same compound, the TGI (PC-3 prostate) was 13.7 µM, the GI50 (SF-268 CNS) was 1.41 µM and the TGI (SF-268 CNS) was 15.4 µM. The GI50 (OVCAR-5 ovarian) was 8.94 µM, the TGI (OVCAR-5 ovarian) was 53.8 µM and the GI50 (SNB-75 CNS) was 4.2 µM. It also gave a TGI (SNB-75 CNS) of 23.4 µM, a GI50 (SK-OV-3 ovarian) of 2.04 µM and a TGI (SK-OV-3 ovarian) of 16.6 µM. The GI50 (OVCAR-4 ovarian) was 7.87 µM, the TGI (OVCAR-4 ovarian) was 47.7 µM and the GI50 (HL-60(TB) leukemia) was 3.81 µM. The TGI (HL-60(TB) leukemia) was 46.8 µM, the GI50 (SF-539 CNS) was 1.37 µM and the TGI (SF-539 CNS) was 13.3 µM. It also gave a GI50 (786-0 renal) of 4.51 µM, a TGI (786-0 renal) of 31.4 µM and a GI50 (RXF 393 renal) of 2.75 µM. It also gave a TGI (RXF 393 renal) of 14.7 µM, a GI50 (T-47D breast) of 4.94 µM and a TGI (T-47D breast) of 23.9 µM. For the same compound, the GI50 (DU-145 prostate) was 3.37 µM, the TGI (DU-145 prostate) was 17.5 µM and the GI50 (SNB-19 CNS) was 3.9 µM. For the same compound, the TGI (SNB-19 CNS) was 25.9 µM, the GI50 (UACC-62 melanoma) was 2.21 µM and the TGI (UACC-62 melanoma) was 25.2 µM. The GI50 (SR leukemia) was 0.425 µM, the TGI (SR leukemia) was 15.1 µM and the GI50 (NCI-H522 lung) was 3.27 µM. For the same compound, the TGI (NCI-H522 lung) was 19.2 µM, the GI50 (NCI-H460 lung) was 0.167 µM and the TGI (NCI-H460 lung) was 6.44 µM. It also gave a GI50 (SN12C renal) of 4.92 µM, a TGI (SN12C renal) of 24.7 µM and a GI50 (CCRF-CEM leukemia) of 1.58 µM. The TGI (CCRF-CEM leukemia) was 28.7 µM, the GI50 (SK-MEL-5 melanoma) was 1.22 µM and the TGI (SK-MEL-5 melanoma) was 14.5 µM. The GI50 (SF-295 CNS) was 1.42 µM, the TGI (SF-295 CNS) was 13.5 µM and the GI50 (NCI-H226 lung) was 4.7 µM. For the same compound, the TGI (NCI-H226 lung) was 23.2 µM, the GI50 (EKVX NSCLC) was 5.09 µM and the TGI (EKVX NSCLC) was 26.4 µM. It also gave a GI50 (OVCAR-8 ovarian) of 1.21 µM, a TGI (OVCAR-8 ovarian) of 11.7 µM and a GI50 (BT-549 breast) of 11.6 µM. For the same compound, the TGI (BT-549 breast) was 37 µM, the GI50 (SK-MEL-28 melanoma) was 5.26 µM and the TGI (SK-MEL-28 melanoma) was 22.8 µM. It also gave a GI50 (CAKI-1 renal) of 1.55 µM, a TGI (CAKI-1 renal) of 22.9 µM and a GI50 (MOLT-4 leukemia) of 1.83 µM. The TGI (MOLT-4 leukemia) was 26.8 µM, the GI50 (NCI-H23 lung) was 6.35 µM and the TGI (NCI-H23 lung) was 25.8 µM. For the same compound, the GI50 (HCT-116 colon) was 0.556 µM, the TGI (HCT-116 colon) was 8.58 µM and the GI50 (U251 CNS) was 0.473 µM. It also gave a TGI (U251 CNS) of 7.97 µM, a GI50 (A549 NSCLC) of 1.05 µM and a TGI (A549 NSCLC) of 5.87 µM. For the same compound, the GI50 (MDA-MB-435) was 3.53 µM, the TGI (MDA-MB-435) was 48.8 µM and the GI50 (COLO 205 colon) was 2.51 µM. The TGI (COLO 205 colon) was 21.2 µM, the GI50 (HOP-62 NSCLC) was 2.58 µM and the TGI (HOP-62 NSCLC) was 14.7 µM. The GI50 (LOX IMVI melanoma) was 0.384 µM, the TGI (LOX IMVI melanoma) was 5.72 µM and the GI50 (HCT-15 colon) was 0.129 µM. The TGI (HCT-15 colon) was 21.4 µM, the GI50 (UO-31 renal) was 7.26 µM and the TGI (UO-31 renal) was 30.8 µM. For the same compound, the GI50 (MDA-MB-231 breast) was 2.4 µM, the TGI (MDA-MB-231 breast) was 12.3 µM and the GI50 (HT29 colon) was 0.821 µM. The TGI (HT29 colon) was 8.2 µM, the GI50 (M14 melanoma) was 5.98 µM and the TGI (M14 melanoma) was 34.1 µM. For the same compound, the GI50 (RPMI-8226 leukemia) was 2.66 µM, the TGI (RPMI-8226 leukemia) was 35.6 µM and the GI50 (MCF7 breast) was 1.98 µM. For the same compound, the TGI (MCF7 breast) was 22.6 µM, the GI50 (OVCAR-3 ovarian) was 3.06 µM and the TGI (OVCAR-3 ovarian) was 17.6 µM. The GI50 (HCC-2998 colon) was 4.35 µM, the TGI (HCC-2998 colon) was 59.3 µM and the GI50 (SW-620 colon) was 1.41 µM. For the same compound, the TGI (SW-620 colon) was 15.6 µM, the GI50 (SK-MEL-2 melanoma) was 14.1 µM and the TGI (SK-MEL-2 melanoma) was 40.5 µM. The GI50 (A498 renal) was 5.45 µM, the TGI (A498 renal) was 23.1 µM and the GI50 (MALME-3M melanoma) was 3.73 µM. The TGI (MALME-3M melanoma) was 17.7 µM, the GI50 (HS 578T breast) was 3.29 µM and the TGI (HS 578T breast) was 23.1 µM. The GI50 (HOP-92 NSCLC) was 1.95 µM, the TGI (HOP-92 NSCLC) was 8.99 µM and the GI50 (KM12 colon) was 1.51 µM. The TGI (KM12 colon) was 20.7 µM, the GI50 (NCI/ADR-RES ovarian) was 2.52 µM and the TGI (NCI/ADR-RES ovarian) was 18.5 µM. It also gave a GI50 (K-562 leukemia) of 0.832 µM, a TGI (K-562 leukemia) of 17.5 µM and a GI50 (TK-10 renal) of 4.28 µM. The TGI (TK-10 renal) was 17.4 µM, the GI50 (ACHN renal) was 2.28 µM and the TGI (ACHN renal) was 15.8 µM. It also gave a GI50 (UACC-257 melanoma) of 9.4 µM and a TGI (UACC-257 melanoma) of 46.1 µM.

For `CCOP(=O)(CCC(O)CNc1nc(N)nc(Cl)c1N=Nc1ccc(Cl)cc1)OCC` (stereo unspecified), the TGI (IGROV1 ovarian) was 33 µM, the TGI (PC-3 prostate) was 29.7 µM and the TGI (SF-268 CNS) was 42.7 µM. The TGI (OVCAR-5 ovarian) was 34.1 µM, the TGI (SNB-75 CNS) was 49.3 µM and the TGI (SK-OV-3 ovarian) was 58.9 µM. The TGI (OVCAR-4 ovarian) was 24.3 µM, the TGI (HL-60(TB) leukemia) was 33.3 µM and the TGI (786-0 renal) was 48.4 µM. The TGI (RXF 393 renal) was 21.1 µM, the TGI (T-47D breast) was 37.3 µM and the TGI (DU-145 prostate) was greater than 100 µM. It also gave a TGI (MDA-N) of 28.3 µM, a TGI (UACC-62 melanoma) of 30.2 µM and a TGI (SR leukemia) of 50.3 µM. For the same compound, the TGI (NCI-H522 lung) was 23 µM, the TGI (NCI-H460 lung) was 26.1 µM and the TGI (SN12C renal) was 42.7 µM. The TGI (CCRF-CEM leukemia) was 46.5 µM, the TGI (SK-MEL-5 melanoma) was 25.7 µM and the TGI (SF-295 CNS) was 38 µM. It also gave a TGI (NCI-H226 lung) of 64.5 µM, a TGI (EKVX NSCLC) of 40.6 µM and a TGI (OVCAR-8 ovarian) greater than 100 µM. It also gave a TGI (SK-MEL-28 melanoma) of 25.9 µM, a TGI (CAKI-1 renal) of 14.5 µM and a TGI (MOLT-4 leukemia) of 37.1 µM. It also gave a TGI (NCI-H23 lung) of 37.4 µM, a TGI (HCT-116 colon) of 40.3 µM and a TGI (U251 CNS) of 51.2 µM. The TGI (A549 NSCLC) was 33.8 µM, the TGI (MDA-MB-435) was 29.9 µM and the TGI (COLO 205 colon) was 27.4 µM. It also gave a TGI (HOP-62 NSCLC) of 40.2 µM, a TGI (LOX IMVI melanoma) of 22.9 µM and a TGI (HCT-15 colon) of 19.6 µM. It also gave a TGI (UO-31 renal) of 16.6 µM, a TGI (MDA-MB-231 breast) greater than 100 µM and a TGI (HT29 colon) of 28.8 µM. It also gave a TGI (RPMI-8226 leukemia) of 42.7 µM, a TGI (MCF7 breast) of 26.3 µM and a TGI (OVCAR-3 ovarian) of 25.3 µM. For the same compound, the TGI (HCC-2998 colon) was 26.1 µM, the TGI (SW-620 colon) was 42.7 µM and the TGI (SK-MEL-2 melanoma) was 24.3 µM. It also gave a TGI (A498 renal) of 27.7 µM, a TGI (MALME-3M melanoma) of 21.4 µM and a TGI (HS 578T breast) of 38.2 µM. The TGI (HOP-92 NSCLC) was 3.8 µM, the TGI (KM12 colon) was 37.5 µM and the TGI (NCI/ADR-RES ovarian) was 46.9 µM. The TGI (K-562 leukemia) was greater than 100 µM, the TGI (TK-10 renal) was 54.1 µM and the TGI (ACHN renal) was 31.6 µM. The TGI (UACC-257 melanoma) was 29.5 µM.
